# Experimental data: ChEMBL document CHEMBL5331071, “Structure-activity relationship study of amidobenzimidazole derivatives as stimulator of interferon genes (STING) agonists” (Eur J Med Chem, 2023)
# pEC50, pIC50: −log10 of the molar value.
# Key:
# [1] = biological target: T1, Stimulator of interferon genes protein (Homo sapiens, UniProt Q86WV6); assay: Agonist activity at STING in human THP1-Dual cells incubated for 20 hrs by Quanti-luc reagent based assay; assay type: cell-based
# [2] = biological target: T1, Stimulator of interferon genes protein; assay: Agonist activity at STING in human […] KO-STING cells incubated for 20 hrs by Quanti-luc reagent based assay; assay type: cell-based, THP1-Dual KO-STING
# [3] = system: THP1-Dual; assay: Cytotoxicity against human THP1-Dual habouring STING assessed as inhibition of cell growth by MTS assay; assay type: functional, cell-based
# [4] = Cytotoxicity against human THP1-Dual KO-STING cells assessed as inhibition of cell growth by MTS assay; assay type: functional, cell-based
# T1 sequence (Q86WV6 whole entry): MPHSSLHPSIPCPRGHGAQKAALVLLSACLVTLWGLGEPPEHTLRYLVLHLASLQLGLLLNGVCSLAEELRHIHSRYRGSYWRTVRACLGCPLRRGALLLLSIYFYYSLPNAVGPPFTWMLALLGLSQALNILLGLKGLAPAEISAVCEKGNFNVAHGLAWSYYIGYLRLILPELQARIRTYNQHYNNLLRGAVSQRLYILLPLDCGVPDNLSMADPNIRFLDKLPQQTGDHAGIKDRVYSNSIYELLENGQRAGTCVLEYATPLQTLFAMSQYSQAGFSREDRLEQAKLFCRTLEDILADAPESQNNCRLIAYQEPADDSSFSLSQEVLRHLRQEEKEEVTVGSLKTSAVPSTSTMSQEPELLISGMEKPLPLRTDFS
SMILES,pEC50 [1],pEC50 [2],pIC50 [3],pIC50 [4]
CCn1nc(C)cc1C(=O)Nc1nc2cc(C(N)=O)cc(OC)c2n1C/C=C/Cn1c(C(F)(F)F)nc2cc(C(N)=O)ccc21,< 4.00,< 4.00,< 4.00,< 4.00
CCn1nc(C)cc1C(=O)Nc1nc2cc(C(N)=O)cc(OC)c2n1C/C=C/CNC(=O)c1ccoc1,< 4.00,< 4.00,< 4.00,< 4.00
CCn1nc(C)cc1C(=O)Nc1nc2cc(C(N)=O)cc(OC)c2n1NCCCC(=O)NCc1ccc(Br)cc1F,5.28,< 4.00,< 4.00,< 4.00
CCn1nc(C)cc1C(=O)Nc1nc2cc(C(N)=O)cc(OC)c2n1NCCCC(=O)NCc1ccc(Oc2ccccc2)cc1,4.54,< 4.00,< 4.00,< 4.00
CCn1nc(C)cc1C(=O)Nc1nc2cc(C(N)=O)cc(OC)c2n1NCCCC(=O)N(C)Cc1ccccc1,4.95,< 4.00,< 4.00,< 4.00
CCn1nc(C)cc1C(=O)Nc1nc2cc(C(N)=O)cc(OCC3CC3)c2n1NCCCC(=O)NCc1ccc(F)cc1,5.85,< 4.00,< 4.00,< 4.00
CCn1nc(C)cc1C(=O)Nc1nc2cc(C(N)=O)cc(OC)c2n1NCCCNC(=O)NCc1ccccc1,5.07,< 4.00,< 4.00,< 4.00
CCn1nc(C)cc1C(=O)Nc1nc2cc(C(N)=O)cc(OC)c2n1C/C=C/CNC(=O)c1ccc2ncccc2c1,< 4.00,< 4.00,< 4.00,< 4.00
CCn1nc(C)cc1C(=O)Nc1nc2cc(C(N)=O)cc(OC)c2n1NCCCNC(=O)Nc1ccc2ccccc2c1,< 4.00,< 4.00,< 4.00,< 4.00
CCn1nc(C)cc1C(=O)Nc1nc2cc(C(N)=O)cc(OCCCOC)c2n1NCCCC(=O)NCc1ccc(F)cc1,5.53,< 4.00,< 4.00,< 4.00
CCn1nc(C)cc1C(=O)Nc1nc2cc(C(N)=O)cc(OC)c2n1CCCC(=O)NCc1ccccc1,5.38,< 4.00,< 4.00,< 4.00
CCn1nc(C)cc1C(=O)Nc1nc2cc(C(N)=O)cc(OC)c2n1C/C=C/Cn1c(=O)[nH]c2cc(C(N)=O)ccc21,< 4.00,< 4.00,< 4.00,< 4.00
CCn1nc(C)cc1C(=O)Nc1nc2cc(C(N)=O)cc(OC)c2n1C/C=C/CNC(=O)c1cc(C(F)(F)F)cc(C(F)(F)F)c1,< 4.00,< 4.00,< 4.00,< 4.00
CCn1nc(C)cc1C(=O)Nc1nc2cc(C(N)=O)cc(OC)c2n1C/C=C/CNC(=O)c1ccc(C(F)(F)F)cc1,< 4.00,< 4.00,< 4.00,< 4.00
CCn1nc(C)cc1C(=O)Nc1nc2cc(C(N)=O)cc(OC)c2n1C/C=C/CNC(=O)NCc1ccccc1,< 4.00,< 4.00,< 4.00,< 4.00
CCn1nc(C)cc1C(=O)Nc1nc2cc(C(N)=O)cc(OC)c2n1NCCCC(=O)NCc1ccc(F)cc1F,5.45,< 4.00,< 4.00,< 4.00
CCn1nc(C)cc1C(=O)Nc1nc2cc(C(N)=O)cc(OC)c2n1CCCN1CCC(C(=O)Nc2ccccc2)CC1,< 4.00,< 4.00,< 4.00,< 4.00
CCn1nc(C)cc1C(=O)Nc1nc2cc(C(N)=O)cc(OC)c2n1C/C=C/CNC(=O)Cc1cnccn1,< 4.00,< 4.00,< 4.00,< 4.00
CCn1nc(C)cc1C(=O)Nc1nc2cc(C(N)=O)cc(OC)c2n1CCCN1CCN(C(=O)c2ccc3ccccc3c2)CC1,< 4.00,< 4.00,< 4.00,< 4.00
CCn1nc(C)cc1C(=O)Nc1nc2cc(C(N)=O)cc(OC)c2n1C/C=C/CNC(=O)c1cnc2ccccc2c1,< 4.00,< 4.00,< 4.00,< 4.00
CCn1nc(C)cc1C(=O)Nc1nc2cc(C(N)=O)cc(OC)c2n1NCCCNC(=O)NCc1ccc2ccccc2c1,< 4.00,< 4.00,< 4.00,< 4.00
CCn1nc(C)cc1C(=O)Nc1nc2cc(C(N)=O)cc(OC)c2n1C/C=C/CNC(=O)c1ccc(Cl)cc1,< 4.00,< 4.00,< 4.00,< 4.00
CCn1nc(C)cc1C(=O)Nc1nc2cc(C(N)=O)cc(OC)c2n1NCCCC(=O)NCc1ccc(C(F)(F)F)cc1,4.88,< 4.00,< 4.00,< 4.00
CCn1nc(C)cc1C(=O)Nc1nc2cc(C(N)=O)cc(OC)c2n1NCCCC(=O)NCc1ccc(-c2ccccc2)cc1,4.39,< 4.00,< 4.00,< 4.00
CCn1nc(C)cc1C(=O)Nc1nc2cc(C(N)=O)cc(OC)c2n1CCOCCNC(=O)c1ccc2ccccc2c1,< 4.00,< 4.00,< 4.00,< 4.00
CCn1nc(C)cc1C(=O)Nc1nc2cc(C(N)=O)cc(OC)c2n1CCCC(=O)Nc1ccccc1,5.01,< 4.00,< 4.00,< 4.00

# Continued, in another order:
pEC50 [1],pEC50 [2],SMILES,pIC50 [3],pIC50 [4]
5.39,< 4.00,CCn1nc(C)cc1C(=O)Nc1nc2cc(C(N)=O)cc(OC)c2n1NCCCC(=O)NCc1ccc(OC)cc1,< 4.00,< 4.00
< 4.00,< 4.00,CCn1nc(C)cc1C(=O)Nc1nc2cc(C(N)=O)cc(OC)c2n1C/C=C/CNC(=O)C1CCCC1,< 4.00,< 4.00
< 4.00,< 4.00,CCn1nc(C)cc1C(=O)Nc1nc2cc(C(N)=O)cc(OC)c2n1C/C=C/CNC(=O)c1cnc(OC)cn1,< 4.00,< 4.00
< 4.00,< 4.00,CCn1nc(C)cc1C(=O)Nc1nc2cc(C(N)=O)cc(OC)c2n1CCCN1CCN(Cc2ccc3ccccc3c2)C(=O)C1,< 4.00,< 4.00
< 4.00,< 4.00,CCn1nc(C)cc1C(=O)Nc1nc2cc(C(N)=O)cc(OC)c2n1C/C=C/CNC1CCOCC1,< 4.00,< 4.00
< 4.00,< 4.00,CCn1nc(C)cc1C(=O)Nc1nc2cc(C(N)=O)cc(OC)c2n1C/C=C/CNC(=O)c1cnc(C(F)(F)F)cn1,< 4.00,< 4.00
4.33,< 4.00,CCn1nc(C)cc1C(=O)Nc1nc2cc(C(N)=O)cc(OC)c2n1C/C=C/CNC(=O)c1ccccc1,< 4.00,< 4.00
5.01,< 4.00,CCn1nc(C)cc1C(=O)Nc1nc2cc(C(N)=O)cc(OC)c2n1CCCC(=O)Nc1ccc2ccccc2c1,< 4.00,< 4.00
5.38,< 4.00,CCn1nc(C)cc1C(=O)Nc1nc2cc(C(N)=O)cc(OC)c2n1NCCCC(=O)NCc1ccccc1F,< 4.00,< 4.00
< 4.00,< 4.00,CCn1nc(C)cc1C(=O)Nc1nc2cc(C(N)=O)cc(OC)c2n1CCOCCNC(=O)c1ccc(C(F)(F)F)cc1,< 4.00,< 4.00
5.29,< 4.00,CCn1nc(C)cc1C(=O)Nc1nc2cc(C(N)=O)cc(OC)c2n1NCCCC(=O)NCc1cc(F)cc(F)c1,< 4.00,< 4.00
< 4.00,< 4.00,CCn1nc(C)cc1C(=O)Nc1nc2cc(C(N)=O)cc(OC)c2n1C/C=C/CNC(=O)c1cc(F)nc(F)c1,< 4.00,< 4.00
< 4.00,< 4.00,CCn1nc(C)cc1C(=O)Nc1nc2cc(C(N)=O)cc(OC)c2n1C/C=C/CNc1ncc(C(N)=O)cn1,< 4.00,< 4.00
< 4.00,< 4.00,CCn1nc(C)cc1C(=O)Nc1nc2cc(C(N)=O)cc(OC)c2n1C/C=C/CNC(=O)Cc1ccccc1,< 4.00,< 4.00
< 4.00,< 4.00,CCn1nc(C)cc1C(=O)Nc1nc2cc(C(N)=O)cc(OC)c2n1C/C=C/CNc1ccc(C(N)=O)cc1[N+](=O)[O-],< 4.00,< 4.00
< 4.00,< 4.00,CCn1nc(C)cc1C(=O)Nc1nc2cc(C(N)=O)cc(OC)c2n1C/C=C/CNC(=O)Cc1ccc(C(F)(F)F)cc1,< 4.00,< 4.00
5.66,< 4.00,CCn1nc(C)cc1C(=O)Nc1nc2cc(C(N)=O)cc(OCCCN3CCOCC3)c2n1NCCCNC(=O)c1ccc2ccccc2c1,4.73,4.55
< 4.00,< 4.00,CCn1nc(C)cc1C(=O)Nc1nc2cc(C(N)=O)cc(OC)c2n1C/C=C/CNC1CCC(N(C)C)CC1 (stereo unspecified),< 4.00,< 4.00
< 4.00,< 4.00,CCn1nc(C)cc1C(=O)Nc1nc2cc(C(N)=O)cc(OC)c2n1C/C=C/CNC(=O)c1ccc2ccccc2c1,< 4.00,< 4.00
4.02,< 4.00,CCn1nc(C)cc1C(=O)Nc1nc2cc(C(N)=O)cc(OC)c2n1NCCCC(=O)NCc1ccc(Cl)cc1Br,< 4.00,< 4.00
6.03,< 4.00,CCn1nc(C)cc1C(=O)Nc1nc2cc(C(N)=O)cc(OC)c2n1CCCNC(=O)c1ccc2ccccc2c1,4.97,< 4.00
< 4.00,< 4.00,CCn1nc(C)cc1C(=O)Nc1nc2cc(C(N)=O)cc(OC)c2n1C/C=C/CNC(=O)C1CCCCC1,< 4.00,< 4.00
< 4.00,< 4.00,CCn1nc(C)cc1C(=O)Nc1nc2cc(C(N)=O)cc(OC)c2n1Cc1cn(Cc2ccc3ccccc3c2)nn1,< 4.00,< 4.00
